The values that follow come from ChEMBL document CHEMBL4837253, “Structure-Based Discovery of Proline-Derived Arginase Inhibitors with Improved Oral Bioavailability for Immuno-Oncology” (ACS Med Chem Lett, 2021).

By bioavailability is commonly meant the share of a dose that reaches the circulation, judged against a reference dose that is usually intravenous. A word on the IC50: it is the midpoint of a concentration-inhibition curve. What is called EC50 is the concentration at which the effect is half-maximal.

Series [1] can be described thus: Oral bioavailability in C57BL/6 mouse at 10 mg/kg. The format is ADME, organism-based. The settings on record: in vivo.
Series [2] in a line: Oral bioavailability in Wister Han rat at 10 mg/kg. The settings on record: in vivo. The format is ADME, organism-based.
Series [3] addresses T1, Arginase-1 (Homo sapiens, UniProt P05089).
T1 sequence (P05089 whole entry): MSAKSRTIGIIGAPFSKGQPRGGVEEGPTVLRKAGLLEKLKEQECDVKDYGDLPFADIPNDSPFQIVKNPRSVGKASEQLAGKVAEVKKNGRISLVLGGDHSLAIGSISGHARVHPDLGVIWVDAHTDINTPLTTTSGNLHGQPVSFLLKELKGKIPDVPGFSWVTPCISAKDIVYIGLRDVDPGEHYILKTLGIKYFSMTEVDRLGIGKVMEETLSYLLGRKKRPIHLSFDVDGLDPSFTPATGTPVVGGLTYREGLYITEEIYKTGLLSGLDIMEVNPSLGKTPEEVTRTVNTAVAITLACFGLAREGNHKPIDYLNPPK
The series is described as follows: Inhibition of human recombinant ARG1 expressed in Escherichia coli using thioarginine as a substrate preincubated for 30 mins followed by substrate addition and incubated for 60 mins by fluorescence based arginine thio ornithine generating assay.

The target in series [4] is T1, Arginase-1. Kind of series: Inhibition of human ARG1 in HEK293 cells by cell based assay.
A short description of series [5]: Drug uptake in serum of EMT6 tumor bearing BALB/c mouse at 30 to 300 mg/kg, po administered twice daily measured after 2 days. The format is ADME, organism-based. The settings on record: in vivo, 48 h, dose 30-300 mg/kg, time 2 day.
Series [6] can be described thus: Drug uptake in tumor of EMT6 tumor bearing BALB/c mouse at 30 to 300 mg/kg, po administered twice daily measured after 2 days. The format is ADME, organism-based, Neoplasm. The settings on record: in vivo, 48 h, dose 30-300 mg/kg, time 2 day.
For series [7], the system named is EMT6. Kind of series: In vivo inhibition of […] in EMT6 tumor bearing BALB/c mouse assessed as elevated arginine levels in serum measured after 2 days. The format is functional, organism-based. The settings on record: time 2.0 day.
The subject of series [8] is EMT6. The series is described as follows: In vivo inhibition of […] in EMT6 tumor bearing BALB/c mouse assessed as elevated arginine levels in tumor measured after 2 days. The format is functional, organism-based. The settings on record: time 2.0 day.
In series [9] the test system is EMT6. The series is described as follows: In vivo inhibition of […] in EMT6 tumor bearing BALB/c mouse assessed as elevated arginine levels in serum at 250 mg/kg, po administered twice daily measured after 14 days. The settings on record: time 14.0 day. The format is functional, organism-based.
Series [10] has as its system EMT6. The series is described as follows: In vivo inhibition of […] in EMT6 tumor bearing BALB/c mouse assessed as elevated arginine levels in tumor at 250 mg/kg, po administered twice daily measured after 14 days. The format is functional, organism-based. The settings on record: Neoplasm, time 14.0 day.
Series [11] relates to EMT6. The series is described as follows: In vivo inhibition of […] in EMT6 tumor bearing BALB/c mouse assessed as elevated arginine levels in serum in the presence of mouse anti-PD-1 mAb at 250 mg/kg, po administered twice daily measured after 14 days. The format is functional, organism-based. The settings on record: time 14.0 day.
Series [12] deals with EMT6. The series is described as follows: In vivo inhibition of […] in EMT6 tumor bearing BALB/c mouse assessed as elevated arginine levels in tumor in the presence of mouse anti-PD-1 mAb at 250 mg/kg, po administered twice daily measured after 14 days. The format is functional, organism-based. The settings on record: Neoplasm, time 14.0 day.
Series [13] can be described thus: Toxicity in EMT6 tumor bearing BALB/c mouse assessed as change in body weight at 30 to 300 mg/kg, po administered twice daily measured up to 14 days. The format is organism-based. The settings on record: in vivo, 336 h, dose 30-300 mg/kg, time <=14 day.
Series [14] in a line: Stability in C57BL/6 mouse hepatocytes. The format is ADME, cell-based, Hepatocyte.
Series [15] can be described thus: Oral bioavailability in C57BL/6 mouse in the presence of compound 18 at 10 mg/kg. The settings on record: in vivo. The format is ADME, organism-based.
The nature of series [16]: Metabolic stability in C57BL/6 mouse hepatocytes assessed as hydrolysis product of (2S,3R,4R)-4-amino-3-(3-boronopropyl)pyrrolidine-2-carboxylic acid measured. The format is ADME, cell-based, Hepatocyte.

Activity calls are given as the source filed them. The calls are words filed in the database; no cut-off is given here.

Regarding `O=C(O)[C@H]1NC[C@H](NCC(F)(F)F)[C@H]1CCCB(O)O`, the bioavailability in [1] worked out at 10%.
With `O=C(O)[C@H]1NCC[C@@H]1CCCB(O)O`, the bioavailability stood at 44% in series [1] and 34% in series [2].
In the case of `O=C(O)[C@H]1NCCO[C@H]1CCCB(O)O`, the results for the bioavailability in [1] and in series [2] were 14% and 10%, respectively.
In the case of `O=C(O)[C@H]1NCC[C@H]1CCCB(O)O`, the 50% inhibitory concentration (IC50) in series [3] came out at 16 nM. In addition, the bioavailability in [1] amounted to 43%; in series [2] it was 25%. This molecule gave a concentration giving a half-maximal response (EC50) in [4] of 3.4 µM. Also, the Drug uptake result in series [5] and in series [6] was “Active” in each case. Further, the values for the Activity entry in series [7], in series [8] and in series [13] were “Dose-Dependent Effect”, “Dose-Dependent Effect” and “Non-Toxic”, respectively. For the same molecule, the inhibition result in series [9], in series [10], in series [11] and in series [12] was “Active” in each case.
Turning to `CC(C)(C)[C@H](N)C(=O)N[C@H]1CN[C@H](C(=O)O)[C@@H]1CCCB(O)O`, the IC50 in [3] was below 1 nM. For the same molecule, in series [1], the bioavailability came out at 34%.
`NC[C@@H]1C[C@@H](CCCB(O)O)[C@@H](C(=O)O)N1`: in series [3], the IC50 was 30 nM. For the same molecule, the bioavailability in series [1] stood at 44%; in [2], 51%. Further, the 50% effective concentration (EC50) in series [4] came out at 16 µM.
In turn, `O=C(O)[C@H]1NC[C@@H]1CCCB(O)O` yielded a bioavailability in [1] of 50%.
`CC(C)[C@H](N)C(=O)N[C@H]1CN[C@H](C(=O)O)[C@@H]1CCCB(O)O`: the IC50 in series [3] turned out to be 2 nM. The molecule also returned a bioavailability in series [1] of 13%. In [14], the Stabilty result is on record as “Unstable”.
Take `CC(C)[C@@H](N)C(=O)N[C@H]1CN[C@H](C(=O)O)[C@@H]1CCCB(O)O`: in series [3], the IC50 was determined as 34 nM.
Turning to `N[C@H]1CN[C@H](C(=O)O)[C@@H]1CCCB(O)O`, the IC50 in series [3] was determined as 3 nM. In [1], this molecule had a bioavailability of 14%. Moreover, the response in [4] was half-maximal at 20 µM (EC50).
Regarding `C[C@H](N)C(=O)N[C@H]1CN[C@H](C(=O)O)[C@@H]1CCCB(O)O`, the IC50 in series [3] came out at 11 nM. Also, the bioavailability in [1] was found to be 3%; in [15], 27%. Also, the Stabilty result in series [14] is “Unstable”. Further, the Drug metabolism result in series [16] was “Metabolite_Detected”.
`CN[C@H]1CN[C@H](C(=O)O)[C@@H]1CCCB(O)O`: the bioavailability in [1] turned out to be 11%.
Take `O=C(O)[C@H]1NCC[C@@]1(CO)CCCB(O)O`: the IC50 in series [3] is 19 nM. Moreover, the values for the bioavailability in series [1] and in series [2] were 34% and 39%, respectively. In [4], the EC50 was 11 µM.
Consider `O=C(O)[C@H]1NC[C@H]1CCCB(O)O`, for which the bioavailability in series [1] came out at 42%.
Turning to `NC[C@@]1(CCCB(O)O)CCN[C@@H]1C(=O)O`, the IC50 in series [3] turned out to be 5 nM. Besides, the response in series [4] was half-maximal at 14 µM (EC50).
For `C[C@@]1(CCCB(O)O)CCN[C@@H]1C(=O)O`, in series [3], the concentration for half-maximal inhibition (IC50) was determined as 33 nM. For the same molecule, the bioavailability in [1] was 19%; in series [2] it was 9%. The EC50 in series [4] stood at 6.3 µM.
On to `O=C(O)[C@@]1(CCN2CCCCC2)NCC[C@H]1CCCB(O)O`, for which the IC50 in series [3] worked out at 70 nM. The bioavailability worked out at 8.5% in [1] and 2.7% in series [2]. The half-maximal effective concentration (EC50) in series [4] was above 30 µM.
For `O=C(O)[C@H]1N[C@H](CO)C[C@H]1CCCB(O)O`, in that order: 8 nM, 12%, 12% and 4.2 µM.
Turning to `O=C(O)[C@H]1NC[C@H](O)[C@H]1CCCB(O)O`, the half-maximal inhibitory concentration (IC50) in series [3] came out at 4 nM. The bioavailability in [1] is 41%; in series [2], 12%. The same molecule came in with an EC50 in series [4] of 6.9 µM.
For the molecule `O=C(O)C1CC(CCB(O)O)CN1` (racemic), the IC50 in series [3] amounted to 8730 nM.
Take `C[C@@H]1C[C@@H](CCCB(O)O)[C@@H](C(=O)O)N1`: the IC50 in series [3] turned out to be 7 nM. The molecule further displayed a bioavailability in [1] of 31%. This molecule returned a concentration giving a half-maximal response (EC50) in series [4] of 2.8 µM.
As to `CN[C@H](C(=O)N[C@H]1CN[C@H](C(=O)O)[C@@H]1CCCB(O)O)C(C)C`, in [3], the IC50 came to 5 nM. Moreover, the bioavailability in series [1] is 4.6%.
With `CO[C@H]1CN[C@H](C(=O)O)[C@@H]1CCCB(O)O`, the half-maximal effective concentration (EC50) in series [4] was found to be 28 µM.
As to `CN(C)[C@H]1CN[C@H](C(=O)O)[C@@H]1CCCB(O)O`, the IC50 in [3] came out at 66 nM. Besides, the bioavailability in [1] was determined as 17%.
